Assay results published in patent US20260200946A1, “KRAS(G12V) INHIBITORS” (Ranok Therapeutics (Hangzhou) Co. Ltd., priority 2022, published 2026).
pEC50, pIC50: −log10 of the molar value.

Each compound was assayed on SW620 cells (assay: Cancer cell line proliferation (CellTiter-Glo), SW620). Conditions: Homo sapiens, SW-620, SW620 colorectal adenocarcinoma, homozygous G12V, 72 hr.
Type: cell-based
Experimental: Cell lines were cultured essentially according to ATCC recommendations. SW620 and NCIH727 cells were plated in 384-well tissue culture plates at 1,000 cells/well and incubated at 37° C./5% CO2 for 72 hr in 40 μl of media. […] Each cell line was then treated with test compounds at various concentrations with a final concentration of 0.5% DMSO/well, and then incubated at 37° C./5% CO2 for 72 hr. 40 μl of CellTiter-Glo® Reagent (Promega Corporation, Madison, WI) was added to each well and processed according manufacturer's protocol. Results were analyzed and IC50 values were calculated in GraphPad 8.0 software.
With `C#Cc1c(F)ccc2cc(O)cc(-c3ncc4c(N5CC6CCC(C5)N6C(=O)NC#N)nc(OCC5(CN6CCC(F)CC6)CC5)nc4c3F)c12` [Example 29] the pEC50 was < 6.00. For `C#Cc1c(F)ccc2cc(O)cc(-c3ncc4c(N5CC6CCC(C5)N6C(=O)c5c[nH]cn5)nc(OCC5(CN6CCC(F)CC6)CC5)nc4c3F)c12` [Example 30], the pEC50 was < 6.00. With `C#Cc1c(F)ccc2cc(O)cc(-c3ncc4c(N5CC6CCC(C5)N6CC)nc(OCC5(CN6CCC(F)CC6)CC5)nc4c3F)c12` [Example 31] the pEC50 was < 6.00. For `C#Cc1c(F)ccc2cc(O)cc(-c3ncc4c(N5CC6CCC(C5)N6C(=O)NC(C)C(F)(F)F)nc(OCC5(CN6CCC(F)CC6)CC5)nc4c3F)c12` (stereo not drawn) [Example 32], the pEC50 was < 6.00. With `C#Cc1c(F)ccc2cc(O)cc(-c3ncc4c(N5CC6CCC(C5)N6S(=O)(=O)CC#N)nc(OCC5(CN6CCC(F)CC6)CC5)nc4c3F)c12` [Example 33] the pEC50 was < 6.00. `C#Cc1c(F)ccc2cc(O)cc(-c3nc(OC)c4c(N5CC6CCC(C5)N6C(=O)NC5(C#N)CC5)nc(OCC5(CN6CCC(F)CC6)CC5)nc4c3F)c12` [Example 34] was tested, and the pEC50 was 6.00 to 7.00. Compound `C#Cc1c(F)ccc2cc(O)cc(-c3ncc4c(N5CC6CCC(C5)N6C(=O)NC5(C#N)CC5)nc(OCC5(CN6CCC(F)CC6)CC5)nc4c3F)c12` [Example 35] has a pEC50 of 6.00 to 7.00. In the case of `C#Cc1c(F)ccc2cc(O)cc(-c3ncc4c(N5CC6CCC(C5)N6C(=O)[C@H]5CCN(C(=O)OC)C5)nc(OCC5(CN6CCC(F)CC6)CC5)nc4c3F)c12` [Example 36], the pEC50 was < 6.00. `C#Cc1c(F)ccc2cc(O)cc(-c3nc(OC)c4c(N5CC6CCC(C5)N6C(=O)NCC#N)nc(OCC5(CN6CCC(F)CC6)CC5)nc4c3F)c12` [Example 37] gave a pEC50 of 6.00 to 7.00.

Each compound was assayed on NCIH727 cells (assay: Cancer cell line proliferation (CellTiter-Glo), NCI-H727). Conditions: Homo sapiens, 72 h, NCIH727 lung carcinoid, heterozygous G12V.
Type: cell-based
Procedure, shortened: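 NCI-H727 cells (1,000/well) were grown 72 h at 37 °C/5% CO2, then exposed to compound at various concentrations (0.5% DMSO final) for a further 72 h. Viability was read by CellTiter-Glo luminescence, and IC50 values were calculated from the dose-response.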
In the case of `C#Cc1c(F)ccc2cc(O)cc(-c3ncc4c(N5CC6CCC(C5)N6C(=O)NC#N)nc(OCC5(CN6CCC(F)CC6)CC5)nc4c3F)c12` [Example 29], the pEC50 was < 6.00. In the case of `C#Cc1c(F)ccc2cc(O)cc(-c3ncc4c(N5CC6CCC(C5)N6C(=O)c5c[nH]cn5)nc(OCC5(CN6CCC(F)CC6)CC5)nc4c3F)c12` [Example 30], the pEC50 was < 6.00. With `C#Cc1c(F)ccc2cc(O)cc(-c3ncc4c(N5CC6CCC(C5)N6CC)nc(OCC5(CN6CCC(F)CC6)CC5)nc4c3F)c12` [Example 31] the pEC50 was < 6.00. With `C#Cc1c(F)ccc2cc(O)cc(-c3ncc4c(N5CC6CCC(C5)N6C(=O)NC(C)C(F)(F)F)nc(OCC5(CN6CCC(F)CC6)CC5)nc4c3F)c12` (stereo not drawn) [Example 32] the pEC50 was < 6.00. For `C#Cc1c(F)ccc2cc(O)cc(-c3ncc4c(N5CC6CCC(C5)N6S(=O)(=O)CC#N)nc(OCC5(CN6CCC(F)CC6)CC5)nc4c3F)c12` [Example 33], the pEC50 was < 6.00. Work on `C#Cc1c(F)ccc2cc(O)cc(-c3nc(OC)c4c(N5CC6CCC(C5)N6C(=O)NC5(C#N)CC5)nc(OCC5(CN6CCC(F)CC6)CC5)nc4c3F)c12` [Example 34] yielded a pEC50 of 6.00 to 7.00. `C#Cc1c(F)ccc2cc(O)cc(-c3ncc4c(N5CC6CCC(C5)N6C(=O)NC5(C#N)CC5)nc(OCC5(CN6CCC(F)CC6)CC5)nc4c3F)c12` [Example 35] gave a pEC50 of 6.00 to 7.00. `C#Cc1c(F)ccc2cc(O)cc(-c3ncc4c(N5CC6CCC(C5)N6C(=O)[C@H]5CCN(C(=O)OC)C5)nc(OCC5(CN6CCC(F)CC6)CC5)nc4c3F)c12` [Example 36] was tested, and the pEC50 was < 6.00. With `C#Cc1c(F)ccc2cc(O)cc(-c3nc(OC)c4c(N5CC6CCC(C5)N6C(=O)NCC#N)nc(OCC5(CN6CCC(F)CC6)CC5)nc4c3F)c12` [Example 37] the pEC50 was 6.00 to 7.00.

What follows are compounds tested against T1, KRAS(G12V)/SOS1 (Homo sapiens, UniProt P01116, G12V) (assay: KRAS(G12V)/SOS1 homogeneous time-resolved fluorescence (HTRF) assay). Conditions: absence of GTP; 4° C., 3 hours; read-out: HTRF of KRASG12V-SOS1.
T1 construct: purchased Cisbio 63ADK000CB18PEH
T1 sequence (P01116 1-188 isoform P01116-2 G12V): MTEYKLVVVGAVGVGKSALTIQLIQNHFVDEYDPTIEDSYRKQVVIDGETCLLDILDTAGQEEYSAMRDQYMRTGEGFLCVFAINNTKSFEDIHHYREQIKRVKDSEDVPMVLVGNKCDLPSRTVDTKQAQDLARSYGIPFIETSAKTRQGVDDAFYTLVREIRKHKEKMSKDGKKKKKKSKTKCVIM
Type: binding
Experimental: Binding of test compounds to KRAS(G12V) target protein, which in turn blocks KRAS(G12V) interaction with the SOS1 protein, was measured in the absences of GTP by homogeneous time-resolved fluorescence using the KRAS-G12V/SOS1 Binding Assay Kit (Cisbio, 63ADK000CB18PEH), following the manufacturer's instructions, except as noted. 3-fold serial dilutions of each test compound were prepared ranging from 20 µM to 1.02 nM. The test compound was mixed and incubated with reaction components, incubated in a sealed plate at 4° C. for 3 hours and fluorescence was measured using a PerkinElmer Envision plate reader. The KRAS(G12V)-SOS1 IC50 values (the concentration of 50% of the maximal inhibition) were calculated using GraphPad Prism 8.0 software.
Work on `C#Cc1c(F)ccc2cc(O)cc(-c3ncc4c(N5CC6CCC(C5)N6C(=O)NC#N)nc(OCC5(CN6CCC(F)CC6)CC5)nc4c3F)c12` [Example 29] yielded a pIC50 of 6.00 to 7.00. `C#Cc1c(F)ccc2cc(O)cc(-c3ncc4c(N5CC6CCC(C5)N6C(=O)c5c[nH]cn5)nc(OCC5(CN6CCC(F)CC6)CC5)nc4c3F)c12` [Example 30] showed a pIC50 of 6.00 to 7.00. Compound `C#Cc1c(F)ccc2cc(O)cc(-c3ncc4c(N5CC6CCC(C5)N6CC)nc(OCC5(CN6CCC(F)CC6)CC5)nc4c3F)c12` [Example 31] has a pIC50 of 6.00 to 7.00. Compound `C#Cc1c(F)ccc2cc(O)cc(-c3ncc4c(N5CC6CCC(C5)N6C(=O)NC(C)C(F)(F)F)nc(OCC5(CN6CCC(F)CC6)CC5)nc4c3F)c12` (stereo not drawn) [Example 32] has a pIC50 of 6.00 to 7.00. `C#Cc1c(F)ccc2cc(O)cc(-c3ncc4c(N5CC6CCC(C5)N6S(=O)(=O)CC#N)nc(OCC5(CN6CCC(F)CC6)CC5)nc4c3F)c12` [Example 33] was tested, and the pIC50 was 6.00 to 7.00. Work on `C#Cc1c(F)ccc2cc(O)cc(-c3nc(OC)c4c(N5CC6CCC(C5)N6C(=O)NC5(C#N)CC5)nc(OCC5(CN6CCC(F)CC6)CC5)nc4c3F)c12` [Example 34] yielded a pIC50 of 6.00 to 7.00. `C#Cc1c(F)ccc2cc(O)cc(-c3ncc4c(N5CC6CCC(C5)N6C(=O)NC5(C#N)CC5)nc(OCC5(CN6CCC(F)CC6)CC5)nc4c3F)c12` [Example 35] showed a pIC50 of 6.00 to 7.00. For `C#Cc1c(F)ccc2cc(O)cc(-c3ncc4c(N5CC6CCC(C5)N6C(=O)[C@H]5CCN(C(=O)OC)C5)nc(OCC5(CN6CCC(F)CC6)CC5)nc4c3F)c12` [Example 36], the pIC50 was 6.00 to 7.00. For `C#Cc1c(F)ccc2cc(O)cc(-c3nc(OC)c4c(N5CC6CCC(C5)N6C(=O)NCC#N)nc(OCC5(CN6CCC(F)CC6)CC5)nc4c3F)c12` [Example 37], the pIC50 was 6.00 to 7.00.
